For eleven molecules, TGI and GI50 results are on record in PubChem BioAssay (NCI).

Some test systems named below: SN12C renal; K-562 leukemia; UACC-62 melanoma; M14 melanoma; HOP-62 NSCLC; SNB-19 CNS; SF-539 CNS; OVCAR-5 ovarian; BT-549 breast; NCI/ADR-RES ovarian.
Assay in all cases: DTP human tumour cell line panel, 48 h

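Briefly, cells in 96-well plates were exposed to five compound concentrations for 48 h, and endpoints were estimated by linear interpolation. GI50 = concentration required for 50% inhibition of growth. TGI: concentration producing complete growth inhibition.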

One may read the TGI as the concentration at which net growth stops. Broadly, the GI50 is the concentration at which growth is held to half of that of the control.

`C=C1C(=O)O[C@@H]2C[C@@H](C)[C@@H]3C=CC(=O)[C@@]3(C)[C@@H](OC(=O)CC(=O)O[C@H]3[C@@H]4C(=C)C(=O)O[C@@H]4C[C@@H](C)[C@@H]4C=CC(=O)[C@]43C)[C@H]12`: the TGI in the experiment with SN12C renal is 0.0763 µM; in the experiment on K-562 leukemia, less than 0.0322 µM; in the experiment on UACC-62 melanoma, 0.0716 µM; with M14 melanoma it was 0.0845 µM; with HOP-62 NSCLC, 1.18 µM; in the experiment with SNB-19 CNS, 1.73 µM. Further, the TGI in the experiment with SF-539 CNS was 0.0781 µM; in the experiment on OVCAR-5 ovarian it was 0.39 µM; in the experiment on BT-549 breast it was 0.161 µM.
For the molecule `Cc1ccc(C)c2c1C(O)(C#Cc1ccccc1)c1ccccc1C2(O)C#Cc1ccccc1` (stereo not drawn), the GI50 in the experiment with NCI/ADR-RES ovarian was 3.63 µM; in the experiment with SN12C renal, 3.04 µM; with K-562 leukemia, 4.4 µM; in the experiment on UACC-62 melanoma, 2.84 µM; with M14 melanoma, 3.6 µM; in the experiment on HOP-62 NSCLC, 5.88 µM. The GI50 in the experiment on SNB-19 CNS was 3.74 µM; in the experiment with SF-539 CNS it was 3.42 µM; in the experiment on OVCAR-5 ovarian, 8.39 µM. In addition, the TGI in the experiment on NCI/ADR-RES ovarian was more than 28.9 µM; in the experiment on SN12C renal, 89.2 µM; in the experiment with K-562 leukemia it was more than 100 µM; in the experiment with UACC-62 melanoma, more than 100 µM; with M14 melanoma, more than 82.5 µM; with HOP-62 NSCLC it was more than 100 µM. Besides, the TGI with SNB-19 CNS is more than 100 µM; with SF-539 CNS, more than 79.3 µM; with OVCAR-5 ovarian it was more than 100 µM.
As for `CCc1cccc(C)c1NC(=O)c1sc2nc3c(cc2c1N)CCCCC3`, the GI50 in the experiment with NCI/ADR-RES ovarian is 2.36 µM; in the experiment on SN12C renal it was 6 µM; in the experiment on UACC-62 melanoma, 3.31 µM; in the experiment with M14 melanoma, 2.53 µM; in the experiment with HOP-62 NSCLC, 4.34 µM; in the experiment on SNB-19 CNS it was 4.07 µM. In addition, the values for the GI50 with SF-539 CNS, in the experiment on OVCAR-5 ovarian and with BT-549 breast were 2.29 µM, 7.74 µM and 5.18 µM, respectively. Moreover, the TGI in the experiment with NCI/ADR-RES ovarian is 14.1 µM; in the experiment on SN12C renal it was more than 100 µM; with UACC-62 melanoma it was more than 100 µM; in the experiment with M14 melanoma, more than 100 µM; in the experiment with HOP-62 NSCLC, more than 100 µM; in the experiment with SNB-19 CNS, more than 100 µM. Besides, the TGI with SF-539 CNS is 8.21 µM; with OVCAR-5 ovarian, more than 100 µM; in the experiment on BT-549 breast, 54.9 µM.
Take `CC(C)CCC(=O)c1ccoc1`: the TGI in the experiment with NCI/ADR-RES ovarian, in the experiment on SN12C renal, in the experiment on K-562 leukemia, in the experiment with UACC-62 melanoma, in the experiment with M14 melanoma and in the experiment on HOP-62 NSCLC was more than 100 µM each time. In addition, the TGI in the experiment on SNB-19 CNS, in the experiment with SF-539 CNS and in the experiment on OVCAR-5 ovarian was more than 100 µM in each case.
Take `COc1cccc(-c2cc(=O)c3cc(OC)ccc3[nH]2)c1`: the TGI was 0.445 µM in the experiment on NCI/ADR-RES ovarian; 47.7 µM in the experiment with SN12C renal; 0.393 µM in the experiment with K-562 leukemia; more than 100 µM with UACC-62 melanoma; 41.5 µM in the experiment with M14 melanoma; 29.7 µM with HOP-62 NSCLC. For the same molecule, the figures for the TGI with SF-539 CNS and with OVCAR-5 ovarian were 0.451 µM and more than 100 µM, respectively. The GI50 in the experiment on SN12C renal is 0.398 µM; in the experiment on K-562 leukemia, 0.0288 µM; in the experiment with UACC-62 melanoma, 0.0459 µM; in the experiment on M14 melanoma, 0.084 µM; in the experiment with HOP-62 NSCLC, 0.401 µM; with OVCAR-5 ovarian, 0.528 µM.
In the case of `COc1ccc(C(=O)/C=C/c2ccc(C)cc2)cc1OC`, the GI50 is 11.7 µM with NCI/ADR-RES ovarian; 13.1 µM with SN12C renal; 8.31 µM in the experiment with K-562 leukemia; 13.7 µM with M14 melanoma; 14.6 µM with HOP-62 NSCLC; 12.8 µM with SNB-19 CNS. The GI50 in the experiment on SF-539 CNS was 5.32 µM; with OVCAR-5 ovarian it was 16.1 µM; in the experiment with BT-549 breast, 14.9 µM. For the same molecule, the TGI came to 28.3 µM with NCI/ADR-RES ovarian; 26.9 µM with SN12C renal; 50.2 µM in the experiment on K-562 leukemia; 26.5 µM in the experiment with M14 melanoma; 27.8 µM in the experiment on HOP-62 NSCLC; 25.5 µM in the experiment with SNB-19 CNS. Besides, the TGI in the experiment with SF-539 CNS worked out at 18.2 µM; in the experiment with OVCAR-5 ovarian, 29.6 µM; with BT-549 breast, 51.5 µM.
In the case of `Oc1[nH]c2ccccc2c1N=Nc1ccccn1`, the concentration for total growth inhibition (TGI) in the experiment with NCI/ADR-RES ovarian was 28 µM; with SN12C renal, more than 100 µM; in the experiment on K-562 leukemia, more than 100 µM; with UACC-62 melanoma, more than 100 µM; in the experiment on M14 melanoma it was more than 100 µM; with HOP-62 NSCLC, 91.7 µM. In addition, the TGI in the experiment on SNB-19 CNS, with OVCAR-5 ovarian and with BT-549 breast was more than 100 µM each time.
For the molecule `CCOC(=O)C1N(S(=O)(=O)c2ccc(C)cc2)CCC12c1ccccc1N(C(C)=O)C2c1ccc(OC)c(OC)c1` (stereo not drawn), the TGI in the experiment with SN12C renal, in the experiment on K-562 leukemia, in the experiment on UACC-62 melanoma, with M14 melanoma, in the experiment on HOP-62 NSCLC and in the experiment on SNB-19 CNS was more than 100 µM each time. Also, the TGI in the experiment on SF-539 CNS and in the experiment with OVCAR-5 ovarian was more than 100 µM in each case.
With `COc1ccc2c(c1)C(=O)c1c-2n(CCCN=[N+]=[N-])c(=O)c2cc(OC)c(OC)cc12`, the GI50 in the experiment on NCI/ADR-RES ovarian was 80.1 µM; in the experiment with SN12C renal it was 64.7 µM; in the experiment on UACC-62 melanoma, 21 µM; with HOP-62 NSCLC it was 11.6 µM; in the experiment with SNB-19 CNS, 47 µM; with SF-539 CNS, 56.5 µM. Also, the GI50 in the experiment on OVCAR-5 ovarian and with BT-549 breast was more than 100 µM each time. Besides, the TGI in the experiment with NCI/ADR-RES ovarian was more than 100 µM; with SN12C renal, more than 100 µM; in the experiment on UACC-62 melanoma, more than 100 µM; in the experiment on HOP-62 NSCLC, 63.2 µM; with SNB-19 CNS it was more than 100 µM; in the experiment with SF-539 CNS, more than 100 µM. Besides, the TGI in the experiment on OVCAR-5 ovarian and with BT-549 breast was more than 100 µM in each case.
As for `Cc1ccc(NC(=O)C2C(=O)N(c3ccc(C)cc3)C(=O)/C2=N\NC(N)=S)cc1` (stereo not drawn), the TGI in the experiment with SN12C renal, with K-562 leukemia, in the experiment on UACC-62 melanoma, in the experiment on M14 melanoma, in the experiment on HOP-62 NSCLC and in the experiment on SNB-19 CNS was more than 100 µM in each case. Further, the TGI with SF-539 CNS and with OVCAR-5 ovarian was more than 100 µM in each case.
In the case of `CC(=O)[CH-]C(C)=O.CC(=O)[CH-]C(C)=O.[CH2-]CCC.[CH2-]CCC.[Sn+4]`, the GI50 in the experiment on SN12C renal was 0.346 µM; with K-562 leukemia it was 0.283 µM; in the experiment on UACC-62 melanoma, 0.31 µM; with M14 melanoma it was 0.608 µM; in the experiment with HOP-62 NSCLC it was 2.02 µM; with SNB-19 CNS it was 0.663 µM. In addition, the GI50 in the experiment with SF-539 CNS was 0.61 µM; in the experiment on OVCAR-5 ovarian it was 1.82 µM. Further, the TGI is 1.67 µM in the experiment with SN12C renal; more than 100 µM in the experiment on K-562 leukemia; 1.18 µM with UACC-62 melanoma; 1.86 µM with M14 melanoma; 3.56 µM with HOP-62 NSCLC; 1.97 µM with SNB-19 CNS. Also, the TGI in the experiment with SF-539 CNS amounted to 1.91 µM; with OVCAR-5 ovarian, 3.22 µM.
